Measured values taken from publication PMC10776900, “Identification of structural motifs critical for human G6PC2 function informed by sequence analysis and an AlphaFold2-predicted model” (Bioscience Reports, 2024).

Experiments:
human G6PC2 V219 variant [1] = target: T1, human G6PC2 V219 variant (Homo sapiens, UniProt Q9NQR9); assay: G6Pase activity with acute addition of cholesterol to purified enzyme; assay type: biochemical; settings: purified without CHS, LMNG micelles; putative CRAC motif
T1 construct: purified from HEK293S (BacMam) in LMNG micelles

human G6PC2 V219 variant [2] = target: T1, human G6PC2 V219 variant; assay: G6Pase activity of enzyme purified with versus without CHS; assay type: biochemical; settings: CHS 0.05% in solubilisation, 0.02% in later buffers, LMNG micelles; putative CRAC motif

% reduction of Vmax (human G6PC2 V219 variant [2]) | Compound | G6Pase activity with acute addition of cholesterol to purified enzyme (human G6PC2 V219 variant [1])
– | CC(C)CCC[C@@H](C)[C@H]1CC[C@H]2[C@@H]3CC=C4C[C@@H](O)CC[C@]4(C)[C@H]3CC[C@]12C [cholesterol] | addition of cholesterol decreased the activity of the V219 but not the L219 variant
~ 90% | CC(C)CCC[C@@H](C)[C@H]1CC[C@H]2[C@@H]3CC=C4C[C@@H](OC(=O)CCC(=O)O)CC[C@]4(C)[C@H]3CC[C@]12C [cholesterol hemi-succinate] | –
